According to article PMC4411102 (PLoS ONE, 2015):

Tests used:
gp120 of HIV-1 BaL = test: Binding ELISA, gp120 of HIV-1 BaL
Description: (§1) After blocking with 3% bovine serum albumin (BSA) in PBS for 30 min, 100 μl of gp120 (100ng/well) in PBS-0.05% BSA was added to each well and incubated for 2 hrs at 37°C. After three washings with PBS-Tween-20 (PBS-T), cells were incubated with anti-gp120 antibody at 1:200 dilution and then with horse radish peroxidase-(HRP) conjugated secondary goat anti-human antibody (1:10000 dilution) for 1 hr at 37°C. This was followed by incubation with O-phenylenediamine for 20 min. The absorbance was measured at 492 nm on a microplate ELISA reader (ELx-800, Bio-Tek Instruments, USA). Background values obtained in the wells without HbAHP-25 were subtracted from the absorbance values from wells having all other reagents.

HIV-1 IIIB [1] = test: Anti-HIV activity in biological fluids, HIV-1 IIIB, luciferase; format: cell-based; conditions: TZM-bl luciferase
[2] = Circular dichroism spectroscopy; format: physicochemical; conditions: 37°C
Description: CD spectra was performed on a JASCO CD Spectrometer (J-815) at 37 °C using a 5.0-nm bandwidth, 0.1-cm path length, 5-s response time, and a 10-nm/min scanning speed.

HIV-1 IIIB and HIV-1 BaL = test: Stability in seminal plasma and vaginal fluid (residual anti-HIV activity); format: in vitro ADME; conditions: 35.7 μM, up to 72 hrs
gp120 of HIV-1 IIIB = test: Binding ELISA, gp120 of HIV-1 IIIB; conditions: ELISA
Description: as §1
Supplementary file pone.0124839.s001.tif: S1 Fig Binding of designed peptides to gp120. Peptides that were designed in silico were evaluated for their binding to gp120 of HIV-1 IIIB. Peptides were coated on 96 well microtiter plate for 16 hrs and then incubated with 500ng of gp120 for 2 hrs at 37°C. This was followed by addition of anti-gp120 antibody, and absorbance was read at 492nm. Background absorbance was subtracted from the wells where peptides were not coated. […] (TIF) Click here for additional data file.

[3] = system: HL2/3 cells expressing gp120; test: Flow cytometry, HL2/3 cells expressing gp120; format: binding; conditions: 35.7μM HbAHP-25, 1 hr at RT
Description: (§2) Cells were washed with same buffer twice and binding was evaluated using flow cytometer (BD Accuri C6, USA). The data was acquired and analyzed on BD Accuri software.

gp120 = gp120 (Human immunodeficiency virus type 1 group M subtype B, UniProt P04578); test: Surface plasmon resonance; format: binding, HIV-1
Description: Briefly, gp120 (20 μg/ml) was immobilized onto carboxymethylated dextran (CM5) surface based sensor chip by amine coupling method according to the manufacturer’s instructions. […] 10mM NaOH and 0.5% SDS were used to regenerate the sensor chip surface after each experimental cycle. The binding response in resonance units (RU) was recorded as a function of time. Non-specific binding was subtracted from the control flow cells without gp120. Binding kinetics was determined with BIA evaluation 4.1 software (BIAcore) using 1:1 Langmuir binding model.

HIV-1 IIIB [4] = test: Anti-HIV activity, p24 antigen assay in H9 cells; format: cell-based; parameters: key to Anti-HIV activity: +: moderate; ++: significant; NA: No activity; conditions: for Anti-HIV activity (in words): 0.1 MoI HIV-1 IIIB pre-incubated with peptide, H9 cells, p24 on day 4
Description: Supplementary file pone.0124839.s002.tif: S2 Fig Anti-HIV activity of 3 designed peptides. Anti HIV activity of three peptides was determined using H9 cells. H9 cells were infected for 4 hrs with 0.1 MoI of HIV-1 IIIB pre-incubated with various concentrations of peptides. Peptides were added post infection as well. Supernatant was collected on day 4 post infection, and p24 antigen assay was performed. […] (TIF) Click here for additional data file.
Supplementary file pone.0124839.s003.tif: S3 Fig Anti-HIV activity of peptide analogues of peptide 1. After modifying the peptide 1, we performed anti-HIV assay as earlier. HIV-1 IIIB was pre-incubated with peptide analogues for 1 hr and then added to H9 cells for 4 hrs. Levels of p24 levels were determined on day 4 post infection. […] (TIF) Click here for additional data file.

[5] = system: PBMCs, VK2/E6E7, TZM-bl, and CEM-GFP cells; test: MTT cytotoxicity assay; format: cell-based, human
Description: Briefly, PBMCs, VK2/E6E7, TZM-bl, and CEM-GFP cells (5x10^4 for 24 hr assay and 2x10^4 cells for 120 hr assay) were seeded in a 96-well microtiter plate 24 hrs prior to the treatment with peptides. Cells were treated with different concentrations of peptides (4.4–1142.4μM). MTT (10 μl of 1mg/ml) was added to each well, followed by addition of 100 μl of DMSO (Sigma-Aldrich) after 3 hrs. The absorbance was measured at 540nm using ELISA reader (ELX-800, BioTek Instruments Ltd, USA.). Untreated cells were used as medium control and 0.1% Triton X-100 treated cells served as a positive control.

HIV-1 VSV = format: cell-based, HIV-1 pseudotyped with VSV-G
TZM-bl cells = test: Flow cytometry, TZM-bl cells (no gp120); format: binding; conditions: 35.7μM HbAHP-25, 1 hr at RT
Description: as §2

[6] = system: vaginal/endocervical epithelial cells
HIV-1 NL4-3 = test: GFP expression in CEM-GFP cells; conditions: HbAHP-25 prior to infection, day 5 post infection
Description: Supernatants were collected and accumulated p24 levels were determined by sandwich ELISA as per the manufacturer’s protocol (XpressBio, Thurmont, MD, USA). AZT (10nM) was used as positive control for inhibition. For GFP analysis, CEM-GFP cells were observed under fluorescent microscope (Carl Zeiss, Oberkochen, Germany) and photographed using a digital camera (DSC–S75; Sony, Tokyo, Japan). IC50 was defined as the concentration that inhibited 50% of viral activity. The selectivity index (SI) was evaluated as the ratio of CC50 to IC50 (SI = CC50/ IC50).

HIV-1 IIIB and ADA5 = test: Time-of-addition assay in TZM-bl cells; conditions: 71.40 μM
Description: Luciferase activity was measured at 48 hrs post treatment using Luminometer (ELx-800, Bio-Tek Instruments, USA). VRC01 (0.1 μM) antibody was used as a positive control.

CD4 binding to gp120 = test: Competitive ELISA, CD4 binding to gp120; parameters: species or system HIV-1; conditions: gp120 pre-incubated with HbAHP-25 30 min, then CD4 1 hr
Description: 96 well microtiter plate was coated with soluble gp120 (1μg/well) from HIV-1 BaL and HIV-1 IIIB strains for 16 hrs at 4°C. […] Anti-CD4 monoclonal antibody (1:200) was added to the wells, followed by HRP-labeled goat anti-human secondary antibody (1:10000). Rest of the protocol followed was same as described above.

HeLa cells = test: Flow cytometry, HeLa cells (no gp120); format: binding; conditions: 35.7μM HbAHP-25, 1 hr at RT
Description: as §2

HIV-1 NL4-3 (wt) = format: cell-based
[7] = 2.2–71.40 μM coated, gp120 100ng/well

CC(C)C[C@H](NC(=O)[C@H](CC(C)C)NC(=O)[C@H](CCCCN)NC(=O)[C@H](CS)NC(=O)[C@H](CC(N)=O)NC(=O)[C@@H](NC(=O)[C@@H]1CCCN1C(=O)[C@H](CC(=O)O)NC(=O)[C@@H](NC(=O)[C@H](CCCNC(=N)N)NC(=O)[C@H](CC(C)C)NC(=O)[C@H](CCCCN)NC(=O)[C@H](Cc1c[nH]cn1)NC(=O)[C@H](C)N)C(C)C)C(C)C)C(=O)N[C@@H](CO)C(=O)N[C@@H](Cc1c[nH]cn1)C(=O)N[C@@H](CS)C(=O)N[C@@H](CC(C)C)C(=O)N[C@@H](CC(C)C)C(=O)N[C@H](C(=O)N[C@H](C(=O)N[C@@H](CC(C)C)C(=O)N[C@@H](C)C(=O)N[C@@H](CCCNC(=N)N)C(=O)N[C@@H](Cc1c[nH]cn1)C(N)=O)[C@@H](C)O)C(C)C [HbAHP-25]
Binding to recombinant gp120 of HIV-1 BaL (gp120 of HIV-1 BaL; [7]): binds to recombinant gp120 of both HIV-1 IIIB and HIV-1 BaL in a dose dependent manner
Concentration with significant binding to gp120 (gp120 of HIV-1 BaL; HIV-1 BaL gp120): above 8.9 μM
Change in anti-HIV activity with seminal plasma (HIV-1 IIIB [1]; human seminal plasma): did not observe any significant change
Change in anti-HIV activity with vaginal fluid (HIV-1 IIIB [1]; human vaginal fluid): did not observe any significant change
α-helical content ([2]; 10 μM, PBS pH 7 / sodium acetate pH 4, from ellipticity at 222 nm): about 50%
Structure at low pH ([2]; pH 4 versus pH 7, 10 μM): no significant change in its structure at low pH
Loss in anti-HIV activity after pre-incubation with seminal plasma (HIV-1 IIIB and HIV-1 BaL; human seminal plasma): did not observe any significant loss
Loss in anti-HIV activity after pre-incubation with vaginal fluid (HIV-1 IIIB and HIV-1 BaL; human vaginal fluid): did not observe any significant loss
Binding to recombinant gp120 of HIV-1 IIIB (gp120 of HIV-1 IIIB; [7]): binds to recombinant gp120 of both HIV-1 IIIB and HIV-1 BaL in a dose dependent manner
Concentration with significant binding to gp120 (gp120 of HIV-1 IIIB; HIV-1 IIIB gp120): above 8.9 μM
Effect on lactobacilli (lactobacilli): not inhibitory to lactobacilli
Shift in fluorescent peak in FL-1A channel [3]: 60.10 ± 4.3%
Rmax (gp120; SPR): 99.7 RU
Chi2 (gp120; fit to 1:1 Langmuir model): 14.7
Anti-HIV activity (in words) (HIV-1 IIIB [4]; listed as analogue-1b): showed better anti-HIV activity than analogue-1a and analogue of peptide-3
Anti-HIV activity (in words) (HIV-1 IIIB [4]; listed as peptide analogue-1b): significantly enhanced
Anti-HIV activity (HIV-1 IIIB [4]; class symbols of Table 1, HIV-1 IIIB in H9 cells, p24 (S2, S3 Fig)): ++
CC50 fold higher than IC50 ([5]; CC50 versus IC50): 5 fold
Cytotoxicity in words ([5]; MTT): not cytotoxic
Dose without adverse effect on viability, relative to IC50 ([5]; dose higher than its IC50): 3 fold
Entry of HIV-1 VSV (HIV-1 VSV): able to enter the cells within one hour even in the presence of HbAHP-25
Infectivity of HIV-1 VSV (HIV-1 VSV): not affected
Shift in fluorescent peak in FL-1A channel (TZM-bl cells): < 3%
Disruption of tight junctions [6]: does not cause disruptions of tight junctions
Induction of inflammation [6]: does not induce any inflammation
GFP expression (HIV-1 NL4-3): reduced
Anti-HIV activity, during infection (HIV-1 IIIB and ADA5; During: peptide and virus added simultaneously): still significant
Anti-HIV activity, post infection (HIV-1 IIIB and ADA5; Post: peptide 6 hrs after infection): significantly lesser than that shown by the first two groups
Luciferase activity, pre-incubation (HIV-1 IIIB and ADA5; Pre: virus pre-incubated with peptide): significantly lesser luciferase activity
Inhibition, all steps (HIV-1 IIIB and ADA5; peptide at all three steps): Maximum inhibition
Inhibition of CD4 binding to gp120 (CD4 binding to gp120): significant reduction in the absorbance
Shift in fluorescent peak in FL-1A channel (HeLa cells): < 3%
Infectivity of HIV-1 (wt) (HIV-1 NL4-3 (wt)): inhibited
